Consider 11 compounds from ChEMBL document CHEMBL3259685, “Successful application of serum shift prediction models to the design of dual targeting inhibitors of bacterial gyrase B and topoisomerase IV with improved in vivo efficacy” (Bioorg Med Chem Lett, 2014).

Values after ≈ are worked out from the molar mass of the structure shown. Active and inactive are the calls of the source. The rule behind the calls is not given here.

The test system of series [1] is Streptococcus pneumoniae. Description: Antimicrobial activity against Streptococcus pneumoniae in presence of 50% human serum. It is filed as functional.
A short description of series [2]: Volume of distribution at steady state in rat at 2.8 to 9.5 mg/kg, iv. Type of series: ADME, organism-based. The arrangement: dose 2.8-9.5 mg/kg, route intravenous. As to conditions: in vivo, read-out: Vdss.
Series [3] relates to Staphylococcus aureus. Description: Antimicrobial activity against Staphylococcus aureus ATCC 29213 infected in Sprague-Dawley rat cyclophosphamide-induced neutropenic sepsis model assessed as host survival at 25 mg/kg, iv administered 1 hr after bacterial infection measured up to 120 hrs. The note with it: ATCC 29213, iv.
The subject of series [4] is Streptococcus pneumoniae. Description: Antimicrobial activity against Streptococcus pneumoniae infected in rat lung infection model assessed as log reduction of bacterial density at 38.5 mg/kg, iv. It is filed as functional.
In series [5] the test system is Staphylococcus aureus. Description: Antimicrobial activity against Staphylococcus aureus ATCC 29213. Type of series: functional.
Series [6] concerns Streptococcus pneumoniae. Description: Antimicrobial activity against Streptococcus pneumoniae. Type of series: functional.
Series [7] has as its system Staphylococcus aureus. Description: Antimicrobial activity against Staphylococcus aureus at 25 mg/kg, iv.
The test system of series [8] is Staphylococcus aureus. Description: Antimicrobial activity against Staphylococcus aureus ATCC 29213 in presence of 50% human serum. It is filed as functional.
Series [9] can be described thus: Clearance in rat at 2.8 to 9.5 mg/kg, iv. Also on record: dose 2.8-9.5 mg/kg, route intravenous. Type of series: ADME, organism-based. As to conditions: in vivo.
Series [10] is described as follows: Half life in rat at 2.8 to 9.5 mg/kg, iv. As to conditions: in vivo. It is filed as ADME, organism-based. The arrangement: dose 2.8-9.5 mg/kg, route intravenous.
Another series relates to Rattus norvegicus. Description: Dose normalized AUC in rat at 2.8 to 9.5 mg/kg, iv. It is filed as ADME, organism-based. The arrangement: dose 2.8-9.5 mg/kg, route intravenous. The note with it: in vivo.
For series [11], the system named is Staphylococcus aureus. Description: Antimicrobial activity against Staphylococcus aureus in rat thigh assessed as log reduction of CFU at 50 mg/kg, iv after 6 hrs. It is filed as functional.
Series [12] has as its system Staphylococcus aureus. Description: Antimicrobial activity against Staphylococcus aureus in rat thigh assessed as log reduction of CFU at 3 mg/kg, iv after 8 hrs. Type of series: functional.
Series [13] has as its system Streptococcus pneumoniae. Description: Antimicrobial activity against Streptococcus pneumoniae infected in rat lung infection model assessed as log reduction of bacterial density at 3 mg/kg, po. Type of series: functional.
Series [14] concerns Staphylococcus aureus. As to the kind of experiment: Antimicrobial activity against Staphylococcus aureus in rat thigh assessed as log reduction of CFU at 30 mg/kg, iv after 8 hrs. It is filed as functional.
The test system of series [15] is Streptococcus pneumoniae. Description: Antimicrobial activity against Streptococcus pneumoniae infected in rat lung infection model assessed as log reduction of bacterial density at 30 mg/kg, po. It is filed as functional.

By MIC is commonly meant the lowest concentration found to suppress growth. By clearance is commonly meant the volume of plasma or blood freed of the substance per unit of time. A low value points to a low capacity for elimination. As usually defined, the half-life is how long it takes for the measured level to halve. Low values mean rapid decline, high ones slow decline.

Turning to `CCNC(=O)Nc1nc2cc(-c3cccnc3)cc(-c3ccccn3)c2[nH]1`, the “fold change (FC)” value in the series on Streptococcus pneumoniae [1] is 43. For the same compound, the Vd in series [2] worked out at 1.1 L/kg. Also, the survival at 25 mg/kg in the series on Staphylococcus aureus [3] was determined as 20%. For the same compound, the FC in the series on Streptococcus pneumoniae [4] was 3. Also, the MIC was determined as 0.047 µg/mL (≈ 0.131 µM) against Staphylococcus aureus [5], 0.004 µg/mL (≈ 0.0112 µM) against Streptococcus pneumoniae [6] and 2 µg/mL in the series on Staphylococcus aureus [8]. In addition, in the series with Staphylococcus aureus [7], the result was Active. The same compound had a clearance in series [9] of 12.5 mL/min/kg. In addition, in series [10], the half-life was 126 min. In the series with Rattus norvegicus, this compound showed an AUC/dose of 1.6 µg·h/mL.
For `CCNC(=O)Nc1nc2cc(-c3cnc4ccccc4c3)cc(-c3ncccn3)c2[nH]1`, the figures for the minimal inhibitory concentration (MIC) against Staphylococcus aureus [5] and in the series on Staphylococcus aureus [8] were 0.032 µg/mL (≈ 0.0782 µM) and 2 µg/mL, respectively.
On to `CCNC(=O)Nc1nc2cc(-c3ccc[n+]([O-])c3)cc(-c3ncccc3F)c2[nH]1`, for which the MIC with Staphylococcus aureus [5] was determined as 0.5 µg/mL (≈ 1.27 µM); with Staphylococcus aureus [8] it was 0.5 µg/mL.
On to `CCNC(=O)Nc1nc2cc(-c3cnc(CN4CCOCC4)nc3)cc(-c3ncccc3F)c2[nH]1`, for which the minimal inhibitory concentration (MIC) in the series on Staphylococcus aureus [5] turned out to be 0.125 µg/mL (≈ 0.262 µM); in the series with Staphylococcus aureus [8], 0.125 µg/mL.
Take `CCNC(=O)Nc1nc2cc(-c3ccc(N)nc3)cc(-c3ncccn3)c2[nH]1`: the figures for the minimum inhibitory concentration (MIC) with Staphylococcus aureus [5] and in the series on Staphylococcus aureus [8] were 0.125 µg/mL (≈ 0.334 µM) and 0.25 µg/mL, respectively.
For `CCNC(=O)Nc1nc2cc(-c3cccnc3)cc(-c3ncccc3F)c2[nH]1`, the “fold change (FC)” value in the series with Streptococcus pneumoniae [1] is 20. In series [2], the Vd was found to be 1.6 L/kg. Also, the minimum inhibitory concentration (MIC) against Staphylococcus aureus [5] was found to be 0.031 µg/mL (≈ 0.0824 µM); with Streptococcus pneumoniae [6] it was 0.004 µg/mL (≈ 0.0106 µM); with Staphylococcus aureus [8], 0.625 µg/mL. In addition, the clearance in series [9] is 14 mL/min/kg. In addition, the half-life in series [10] is 42 min. This compound gave an AUC/dose in the series with Rattus norvegicus of 1.1 µg·h/mL. The FC in the series on Staphylococcus aureus [11] is on record as 1.5.
With `CCNC(=O)Nc1nc2cc(-c3cnc(C(C)(C)O)nc3)cc(-c3ncccc3F)c2[nH]1`, the “fold change (FC)” value in the series with Streptococcus pneumoniae [1] is given as 8. In series [2], the Vd is 2.1 L/kg. In addition, the FC is 1.7 in the series with Staphylococcus aureus [12], 3.7 with Streptococcus pneumoniae [13], 2.1 in the series on Staphylococcus aureus [14] and 5.8 with Streptococcus pneumoniae [15]. Also, the MIC against Staphylococcus aureus [5] worked out at 0.032 µg/mL (≈ 0.0735 µM); against Streptococcus pneumoniae [6], 0.004 µg/mL (≈ 0.00919 µM); in the series on Staphylococcus aureus [8], 0.25 µg/mL. The compound further yielded a clearance in series [9] of 23 mL/min/kg. Further, in series [10], the half-life is 72 min. In the series on Rattus norvegicus, this compound yielded an AUC/dose of 0.8 µg·h/mL.
For the compound `CC(=O)NC[C@H]1CN(c2ccc(N3CCOCC3)c(F)c2)C(=O)O1` [LINEZOLID], the “fold change (FC)” value with Streptococcus pneumoniae [1] worked out at 1. For the same compound, in series [2], the Vd came to 1 L/kg. In addition, the outcome with Staphylococcus aureus [12] was inactive. Also, the FC came to 0.8 in the series with Streptococcus pneumoniae [13], 1.4 with Staphylococcus aureus [14] and 4.5 in the series on Streptococcus pneumoniae [15]. Also, in the series on Staphylococcus aureus [3], the survival at 25 mg/kg was 30%. The figures for the MIC against Staphylococcus aureus [5] and against Streptococcus pneumoniae [6] were 1.56 µg/mL (≈ 4.62 µM) and 0.4 µg/mL (≈ 1.19 µM), respectively. In addition, in [9], the clearance was 14.5 mL/min/kg. The half-life in series [10] was 42 min. Further, the AUC/dose in the series with Rattus norvegicus was 1.1 µg·h/mL.
As for `CCNC(=O)Nc1nc2cc(-c3ccc(C(N)=O)nc3)cc(-c3ncccn3)c2[nH]1`, the MIC was found to be 0.064 µg/mL (≈ 0.159 µM) against Staphylococcus aureus [5] and 0.25 µg/mL in the series with Staphylococcus aureus [8].
For the compound `CCNC(=O)Nc1nc2cc(-c3cccnc3)cc(-n3cccn3)c2[nH]1`, the values for the MIC against Staphylococcus aureus [5] and with Staphylococcus aureus [8] were 0.125 µg/mL (≈ 0.36 µM) and 4 µg/mL, respectively.
Consider `CCNC(=O)Nc1nc2cc(-c3ccc(CN(C)C)nc3)cc(-c3ncccn3)c2[nH]1`, for which the MIC against Staphylococcus aureus [5] worked out at 0.5 µg/mL (≈ 1.2 µM); with Staphylococcus aureus [8] it was 0.125 µg/mL.
